Source: PMC7848139, “Novel Hybrid CHC from β-carboline and N-Hydroxyacrylamide Overcomes Drug-Resistant Hepatocellular Carcinoma by Promoting Apoptosis, DNA Damage, and Cell Cycle Arrest” (Frontiers in Pharmacology, 2021)

Assays:
SMMC-7721 = assay: MTT antiproliferative assay, SMMC-7721; type: cell-based; conditions: Homo sapiens, 72 h, mean ± SD of three experiments, read-out: In vitro antiproliferative activity (IC50) SMMC-7721
Procedure: (§1) Briefly, appropriate cells (1 × 10^4 cells/mL) were placed into 96-well plates in 100 μL of DMEM medium overnight. Then adding 100 μL of evaluated compounds into individual well for 72 h while 0.1% DMSO aqueous solution was treated as the negative control. After incubation with 30 μl MTT (5 mg/mL) for 4 h in all well, and ELISA plate reader measured absorbance of each well at 570 nm. Then calculating cytotoxicity effect of evaluated compounds through the formula: Cell inhibitory percentage (%) = (1−OD of treatment group/OD of control) × 100%.

Bel7402/5-FU = assay: MTT antiproliferative assay, Bel7402/5-FU; type: cell-based; conditions: Homo sapiens, drug-resistant HCC cells, 72 h, mean ± SD of three experiments, read-out: In vitro antiproliferative activity (IC50) Bel7402/5-FU
Procedure: as §1

LO2 cells = assay: MTT assay on normal liver LO2 cells; type: cell-based, human; conditions: increasing dosages, 72 h
Procedure: Human cancer cell lines (SMMC-7721, Bel7402, Huh7, HCT116), drug-resistant cell lines (Bel7402/5-FU), and human normal hepatocyte cells (LO2) were purchased from Institute of Cell Biology (Shanghai, China).
as §1, with “100%. GraphPadPrism (4.03) calculated data to afford Corresponding IC50 values.” for “100%.”
FIGURE 3 Inhibition potency of CHC against the proliferation on Bel7402, Bel7402/5-FU, and LO2 cells. Cells were treated with CHC at the indicated concentrations for 72 h. MTT assays were performed to evaluate cell proliferation. The inhibition (%) rate (mean ± SD) were from three separate experiments.

recombinant human HDAC1 = biological target: T1, recombinant human HDAC1 (Homo sapiens, UniProt Q13547); assay: HDAC fluorimetric assay, HDAC1; type: biochemical
T1 construct: purchased Enzo Life Sciences Inc
Procedure: The assay was conducted according to the HDAC1/3/6/8 assay kit (Enzo Life Sciences Inc.). Each different concentrations of evaluated compounds were, respectively, incubated with each HDAC1/3/6/8 at coupling of corresponding HDAC substrate (Boc-Lys (Ac)-AMC) at 37°C for 60 min. Then stopping the reaction under adding lysine developer.

Bel7402/5-FU cells = assay: Cell apoptosis analysis by flow cytometry; type: cell-based, human; conditions: 72 h
Procedure: Briefly, Bel7402/5-FU cells were cultured in DMEM at 37°C with 5% CO2 for 12 h. […] Then Bel7402/5-FU cells were collected and using APC-Annexin V and 7-AAD to stain these cells under the condition of 37°C for 15 min. Flow cytometry analysis (Calibur, BD, United States) decide the percentage of apoptotic cells according to APC signal (FL4) (excitation wavelength at 633 nm; emission wavelength at 660 nm) and 7-AAD staining signal (FL3) (excitation wavelength at 488 nm; emission wavelength at 647 nm). WinList 3D (7.1) analyzed the data and Excel 2016 plotted the histogram.
FIGURE 5 CHC causes apoptosis of Bel7402/5-FU cells. […] The data (mean ± SD, percentage of apoptotic cells) represent the average of three separate experiments. *p < 0.01 vs. control.

[1] = tested on: Ac-histone H3, Ac-histone H4, Ac-α-tubulin in Bel7402/5-FU cells; assay: Western blotting of acetylated histone H3, H4 and α-tubulin; type: cell-based, human; conditions: 2.0 and 5.0 μM, 72 h
Procedure: (§2) The HDAC, autophagy and apoptosis-related proteins were analyzed according to Western blotting assay. […]. And anti-Ac-histone H3, anti-Ac-histone H4, anti-Ac-α-tubulin, anti-Bax, anti-Bcl2, anti-H2AX (S139ph), anti-CDK1, anti-cyclin B, and anti-β-actin antibodies (Cell Signaling Technology, MA, United States) detected the target proteins after membranes were blocked with 5% fat-free milk. The peroxidase-conjugated secondary antibodies detected the bound antibodies for 1 h and visualized according to improved chemiluminescent reagent.
The data (mean ± SD) were obtained from three independent assays. *p < 0.01 vs. control.

[2] = tested on: Bax, Bcl-2, caspase-3 in Bel7402/5-FU cells; assay: Western blotting of apoptosis-related proteins; type: cell-based, human; conditions: 72 h
Procedure: as §2
[…]; (B) The relative expression levels of each protein (Bax, Bcl-2, pro-caspase-3, and cleaved caspase-3) were quantitatively analyzed using β-actin as reference. The data are presented as the mean ± SD of three separated assays. *p < 0.01 vs. control.

CT-DNA = assay: UV-visible spectroscopy titrations with CT DNA; type: binding, calf; conditions: 20 μM compound, equal increments of CT-DNA, 25°C
Procedure: The ultraviolet spectrophotometer (UV2500, Shimadzu, Tokyo, Japan) recorded UV–visible spectroscopy under titrations at 25°C. Tris buffer (5 mM) was used to prepare Stock solutions of CT DNA (20 μM, calf thymus DNA) comprising ideal structure of double stranded DNA. Dissolving synthesized derivative in 1:1000 DMSO/Milli Q water to prepare stock solutions of them (20 μM). UV–visible absorption titrations were carried out with addition of 100 μl CT DNA solution to 4 ml solution of tested compound in quartz cuvette each time interval. Until the absorption band of complex containing synthesized derivative and CT DNA kept at a stable wavelength after adding CT DNA successfully for five times, titrations were finished. Finally, spectrophotometer noted the absorption spectra (250–500 nm).
FIGURE 7 UV-visible absorption spectra of CHC after adding equal amounts of CT DNA. Arrows indicate changes in absorbance with increasing concentrations of DNA [CHC] = 20 μM.

[3] = tested on: H2AX (S139ph) in Bel7402/5-FU cells; assay: Western blotting of DNA damage marker H2AX; type: cell-based, human; conditions: 72 h
Procedure: as §2
[…]; (B) The relative expression levels of H2AX protein were quantitatively analyzed using an internal reference β-actin, and the data (mean ± SD) were from three separate experiments. *p < 0.01 vs. control.

[4] = tested on: cyclin B and CDK1 in Bel7402/5-FU cells; assay: Western blotting of cyclin B and CDK1; type: cell-based, human; conditions: 2.0 and 5.0 μM, 72 h, immunoblotting
Procedure: as §2
. Values (mean ± SD) were obtained from three separate experiments. *p < 0.01 vs. control.

T1 sequence (Q13547 whole entry): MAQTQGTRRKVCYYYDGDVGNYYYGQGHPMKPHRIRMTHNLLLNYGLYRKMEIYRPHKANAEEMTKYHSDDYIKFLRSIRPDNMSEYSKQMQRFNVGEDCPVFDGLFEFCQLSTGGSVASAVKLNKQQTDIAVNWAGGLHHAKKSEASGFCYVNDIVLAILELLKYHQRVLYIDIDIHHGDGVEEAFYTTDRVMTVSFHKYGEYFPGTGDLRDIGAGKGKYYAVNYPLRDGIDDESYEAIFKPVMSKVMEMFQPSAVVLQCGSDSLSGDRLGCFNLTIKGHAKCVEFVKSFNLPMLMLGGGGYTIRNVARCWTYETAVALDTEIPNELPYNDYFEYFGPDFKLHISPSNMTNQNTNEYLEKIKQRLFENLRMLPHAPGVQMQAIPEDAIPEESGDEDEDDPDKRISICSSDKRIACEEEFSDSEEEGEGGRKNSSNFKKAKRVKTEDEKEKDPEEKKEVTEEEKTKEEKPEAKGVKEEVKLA

IC50 (SMMC-7721): 3.27 ± 0.36 µM
IC50 (Bel7402/5-FU): 2.17 ± 0.35 µM
IC50 on HDAC1 relative to SAHA (recombinant human HDAC1; compared with SAHA): approximately five-fold lower
IC50 (recombinant human HDAC1; mean ± SD of three experiments): 0.029 ± 0.003 µM
fold lower IC50 on HDAC1 than on HDAC3 (recombinant human HDAC1; selectivity HDAC1 over HDAC3): 4 fold
Structure (SMILES): CN(C)c1ccc(-c2nc(C(=O)NCc3ccc(/C=C/C(=O)NO)cc3)cc3c2[nH]c2ccccc23)cc1 [CHC, (E)-N-(4-(3-(hydroxyamino)-3-oxoprop-1-en-1-yl)benzyl)-1-(4-dimethylaminophenyl)-9H-pyrido [3,4-b]indole-3-carboxamide]
cytotoxicity on normal liver LO2 cells growth (LO2 cells): minimal cytotoxicity effects
rate of Annexin V+ Bel7402/5-FU cellular apoptosis (Bel7402/5-FU cells; 2.0 μM): 42.3%
rate of Annexin V+ Bel7402/5-FU cellular apoptosis (Bel7402/5-FU cells; 5.0 μM): 67.2%
acetylation of H3, H4 and α-tubulin [1]: promoted the acetylation of H3, H4, and α-tubulin with increasing dose
expression of Bax, Bcl-2 and cleavage of caspase-3 [2]: significantly upregulate the expression of Bax and cleavage of caspase-3 and downregulate the expression of Bcl-2
change of UV-visible absorption upon adding CT-DNA (CT-DNA): absorption at all wavelengths gradually decreased
expression of phosphorylated H2AX [3]: induced the expression of phosphorylated H2AX in Bel7402/5-FU cells in a dosage-dependent manner
expression of cyclin B and CDK1 [4]: downregulated the expression of cyclin B and CDK1
